31 compounds from patent US9382197B2, “Substituted hydroxamic acids and uses thereof” (Millennium Pharmaceuticals, Inc., priority 2010, dated 2016) can be followed below.

pIC50: −log10 of the molar value.

The target of one assay is T1, purified human HDAC6 (Homo sapiens, UniProt Q9UBN7).
T1 construct: purchased BPS Bioscience 5006
T1 sequence (Q9UBN7 1-1215): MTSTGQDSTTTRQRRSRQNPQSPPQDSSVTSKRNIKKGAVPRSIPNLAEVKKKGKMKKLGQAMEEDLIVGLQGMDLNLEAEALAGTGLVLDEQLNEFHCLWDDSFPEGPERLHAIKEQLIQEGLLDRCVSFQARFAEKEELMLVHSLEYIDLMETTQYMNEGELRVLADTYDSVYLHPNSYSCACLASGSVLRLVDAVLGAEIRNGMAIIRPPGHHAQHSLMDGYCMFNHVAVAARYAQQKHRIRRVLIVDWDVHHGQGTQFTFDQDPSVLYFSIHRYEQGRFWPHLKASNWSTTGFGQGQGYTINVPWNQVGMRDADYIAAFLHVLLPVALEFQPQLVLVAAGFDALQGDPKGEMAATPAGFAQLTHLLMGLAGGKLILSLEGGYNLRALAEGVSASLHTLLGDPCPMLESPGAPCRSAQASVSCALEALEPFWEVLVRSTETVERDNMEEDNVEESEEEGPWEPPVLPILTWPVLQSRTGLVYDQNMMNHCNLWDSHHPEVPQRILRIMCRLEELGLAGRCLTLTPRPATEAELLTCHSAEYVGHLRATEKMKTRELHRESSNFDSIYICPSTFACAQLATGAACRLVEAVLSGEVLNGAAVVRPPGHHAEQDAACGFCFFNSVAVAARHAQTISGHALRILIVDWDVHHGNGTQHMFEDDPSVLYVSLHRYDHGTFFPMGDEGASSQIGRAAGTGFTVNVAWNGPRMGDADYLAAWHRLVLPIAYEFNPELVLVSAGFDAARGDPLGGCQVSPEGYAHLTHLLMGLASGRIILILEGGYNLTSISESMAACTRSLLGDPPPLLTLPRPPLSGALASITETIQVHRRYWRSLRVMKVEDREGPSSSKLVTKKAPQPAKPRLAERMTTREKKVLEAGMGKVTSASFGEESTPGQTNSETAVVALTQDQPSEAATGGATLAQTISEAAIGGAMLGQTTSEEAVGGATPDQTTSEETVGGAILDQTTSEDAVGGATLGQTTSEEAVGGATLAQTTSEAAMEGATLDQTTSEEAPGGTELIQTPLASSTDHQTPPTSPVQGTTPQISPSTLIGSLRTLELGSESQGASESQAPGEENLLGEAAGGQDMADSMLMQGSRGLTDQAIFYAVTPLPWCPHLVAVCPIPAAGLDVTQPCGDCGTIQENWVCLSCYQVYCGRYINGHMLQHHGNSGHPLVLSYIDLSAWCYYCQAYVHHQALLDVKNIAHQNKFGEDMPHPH
The experiment in a line: HDAC6 Enzyme Assay. It counts as biochemical. Conditions: bin: greater than 500 nM and less than 1 μM (lower bound in nM, upper bound in μM). An outline of the steps: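 Deacetylated product quantified after trypsin digestion as released AMC (340/460 nm), following a 1 h, 30 °C reaction of human HDAC6 with Ac-RGK(Ac)-AMC peptide, quenched by trichostatin A. IC50 derived from DMSO-normalized curves.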
Usually IC50 stands for the point on the concentration scale where inhibition reaches its midpoint. Read a high IC50 as weaker potency. In the case of `CC(C)(C)C(NC(=O)c1cc(C(F)(F)F)cc(C(F)(F)F)c1)c1ccc(C(=O)NO)cc1` (centres unmarked) [Compound I-52, N-(1-{4-[(hydroxyamino)carbonyl]phenyl}-2,2-dimethylpropyl)-3,5-bis(trifluoromethyl)benzamide], the IC50 fell in the range of 500 to 1000 nM.

As for `C[C@@H](NS(=O)(=O)c1ccc(C(F)(F)F)cc1)c1ccc(C(=O)NO)cc1` [Compound I-351, N-hydroxy-4-[(1R)-1-({[4-(trifluoromethyl)phenyl]sulfonyl}amino)ethyl]benzamide], the IC50 is 500 to 1000 nM.

As for `C[C@H](NC(=O)c1ccc(-c2ccccc2)cc1)c1cccc(C(=O)NO)c1` [Compound I-393, N-((1S)-1-{3-[(hydroxyamino)carbonyl]phenyl}ethyl)biphenyl-4-carboxamide], the IC50 was 500 to 1000 nM.

With `CC(C)(C)C(NC(=O)C1(c2ccc(Cl)cc2)CC1)c1ccc(C(=O)NO)cc1` (centres unmarked) [Compound I-41, 4-[1-({[1-(4-chlorophenyl)cyclopropyl]carbonyl}amino)-2,2-dimethylpropyl]-N-hydroxybenzamide], the IC50 lay within 500 to 1000 nM.

Compound `CC(C)(C)C(NC(=O)c1cccc(S(C)(=O)=O)c1)c1ccc(C(=O)NO)cc1` (centres unmarked) [Compound I-75, N-(1-{4-[(hydroxyamino)carbonyl]phenyl}-2,2-dimethylpropyl)-3-(methylsulfonyl)benzamide] gave an IC50 of 500 to 1000 nM.

The same assay, now with this note: bin: greater than 1 μM.
In general, pIC50 refers to −log10 of the IC50, conventionally taken in molar units. High values mean a small IC50, low ones a large IC50. Compound `C[C@@H](NS(=O)(=O)c1ccc(C(F)(F)F)cc1)c1cccc(C(=O)NO)c1` [Compound I-403, N-hydroxy-3-[(1R)-1-({[4-(trifluoromethyl)phenyl]sulfonyl}amino)ethyl]benzamide] had a pIC50 below 6.00.

The compound `CC(C)(C)CC(=O)NC(c1ccc(C(=O)NO)cc1)C(C)(C)C` (centres unmarked) [Compound I-396, 4-{1-[(3,3-dimethylbutanoyl)amino]-2,2-dimethylpropyl}-N-hydroxybenzamide] showed a pIC50 below 6.00.

Consider `CC(NS(=O)(=O)c1ccc(C(F)(F)F)cc1)c1ccc(C(=O)NO)cc1` (centres unmarked) [Compound I-488, N-hydroxy-4-[1-({[4-(trifluoromethyl)phenyl]sulfonyl}amino)ethyl]benzamide], for which the negative-log IC50 (pIC50) is below 6.00.

For `CC(C)C(NC(=O)c1ccc(-c2ccccc2)cc1)c1cccc(C(=O)NO)c1` (centres unmarked) [Compound I-323, N-(1-{3-[(hydroxyamino)carbonyl]phenyl}-2-methylpropyl)biphenyl-4-carboxamide], the pIC50 is below 6.00.

As for `CC(C)c1ccc(CC(=O)NC(C)c2ccc(C(=O)NO)cc2)cc1` (centres unmarked) [Compound I-285, N-hydroxy-4-(1-{[(4-isopropylphenyl)acetyl]amino}ethyl)benzamide], the pIC50 was below 6.00.

The same assay, now with this note: purified human HDAC6, substrate Ac-Arg-Gly-Lys(Ac)-AMC, 1 hour at 30° C.; reported as bins.
In the case of `CC(NC(=O)c1c[nH]c2ccccc12)c1cccc(C(=O)NO)c1` (centres unmarked) [Compound I-10, N-(1-{3-[(hydroxyamino)carbonyl]phenyl}ethyl)-1H-indole-3-carboxamide], the pIC50 is 6.30 to 7.00.

`CC(NC(=O)c1cc2cc(Cl)ccc2o1)c1cccc(C(=O)NO)c1` (centres unmarked) [Compound I-226, 5-chloro-N-(1-{3-[(hydroxyamino)carbonyl]phenyl}ethyl)-1-benzofuran-2-carboxamide] showed a pIC50 of 6.30 to 7.00.

`CC(NC(=O)c1ccccc1Cl)c1ccc(C(=O)NO)cc1` (centres unmarked) [Compound I-269, 2-chloro-N-(1-{4-[(hydroxyamino)carbonyl]phenyl}ethyl)benzamide] had a pIC50 above 7.00.

Compound `CC(NC(=O)c1cc2ccccc2[nH]1)c1cccc(C(=O)NO)c1` (centres unmarked) [Compound I-227, N-(1-{3-[(hydroxyamino)carbonyl]phenyl}ethyl)-1H-indole-2-carboxamide] had a pIC50 of 6.30 to 7.00.

As to `CC(NS(=O)(=O)c1ccc(C(F)(F)F)cc1)c1ccc(C(=O)NO)cc1` (centres unmarked) [Compound I-488, N-hydroxy-4-[1-({[4-(trifluoromethyl)phenyl]sulfonyl}amino)ethyl]benzamide], the pIC50 is 6.30 to 7.00.

`CC(C)[C@@H](NC(=O)Nc1ccc2c(c1)CCO2)c1ccc(C(=O)NO)cc1` [Compound I-526, 4-((1R)-1-{[(2,3-dihydro-1-benzofuran-5-ylamino)carbonyl]amino}-2-methylpropyl)-N-hydroxybenzamide] had a pIC50 above 7.00.

Regarding `CC(C)C(NC(=O)c1ccc2ncsc2c1)c1ccc(C(=O)NO)cc1` (centres unmarked) [Compound I-43, N-(1-{4-[(hydroxyamino)carbonyl]phenyl}-2-methylpropyl)-1,3-benzothiazole-6-carboxamide], the pIC50 was 6.30 to 7.00.

Compound `C[C@@H](NC(=O)NC12CC3CC(CC(C3)C1)C2)c1ccc(C(=O)NO)cc1` [Compound I-374, 4-[(1R)-1-({[1-adamantylamino]carbonyl}amino)ethyl]-N-hydroxybenzamide] showed a negative logarithm of the IC50 (pIC50) above 7.00.

Regarding `Cc1c(C(=O)N[C@H](C)c2ccc(C(=O)NO)cc2)oc2ccccc12` [Compound I-237, N-((1R)-1-{4-[(hydroxyamino)carbonyl]phenyl}ethyl)-3-methyl-1-benzofuran-2-carboxamide], the pIC50 is above 7.00.

`CC(NC(=O)NC(C)c1ccc(C(=O)NO)cc1)c1ccccc1` (centres unmarked) [Compound I-196, N-hydroxy-4-[1-({[(1-phenylethyl)amino]carbonyl}amino)ethyl]benzamide]: the pIC50 was 6.30 to 7.00.

In turn, `CCC[C@@H](NC(=O)C1(C)CCCCC1)c1ccc(C(=O)NO)cc1` [Compound I-387, N-hydroxy-4-((1R)-1-{[(1-methylcyclohexyl)carbonyl]amino}butyl)benzamide] gave a pIC50 above 7.00.

In turn, `C[C@@H](NC(=O)c1cc2ccccc2n1C)c1cccc(C(=O)NO)c1` [Compound I-330, N-((1R)-1-{3-[(hydroxyamino)carbonyl]phenyl}ethyl)-1-methyl-1H-indole-2-carboxamide] gave a pIC50 of 6.30 to 7.00.

In turn, `COc1ccc(NC(=O)NC(C)c2ccc(C(=O)NO)cc2)c(OC)c1` (centres unmarked) [Compound I-44, 4-[1-({[(2,4-dimethoxyphenyl)amino]carbonyl}amino)ethyl]-N-hydroxybenzamide] gave a pIC50 above 7.00.

For the compound `CC(NC(=O)c1ccc2c(c1)OCO2)c1ccc(C(=O)NO)cc1` (centres unmarked) [Compound I-297, N-(1-{4-[(hydroxyamino)carbonyl]phenyl}ethyl)-1,3-benzodioxole-5-carboxamide], the negative logarithm of the IC50 (pIC50) was above 7.00.

With `Cc1c(C(=O)N[C@@H](c2ccc(C(=O)NO)cc2)C(C)C)oc2ccccc12` [Compound I-187, N-((1R)-1-{4-[(hydroxyamino)carbonyl]phenyl}-2-methylpropyl)-3-methyl-1-benzofuran-2-carboxamide], the pIC50 is above 7.00.

Compound `CCC[C@@H](NC(=O)c1ccc(-c2ccccc2)cc1)c1ccc(C(=O)NO)cc1` [Compound I-274, N-((1R)-1-{4-[(hydroxyamino)carbonyl]phenyl}butyl)biphenyl-4-carboxamide] gave a pIC50 above 7.00.

`Cn1cccc1C(=O)NC(c1ccc(C(=O)NO)cc1)C(C)(C)C` (centres unmarked) [Compound I-133, N-(1-{4-[(hydroxyamino)carbonyl]phenyl}-2,2-dimethylpropyl)-1-methyl-1H-pyrrole-2-carboxamide] gave a pIC50 of 6.30 to 7.00.

`CC(C)[C@@H](NC(=O)c1cccn1C)c1ccc(C(=O)NO)cc1` [Compound I-65, N-((1R)-1-{4-[(hydroxyamino)carbonyl]phenyl}-2-methylpropyl)-1-methyl-1H-pyrrole-2-carboxamide] had a pIC50 above 7.00.

As to `CC(NC(=O)C1CCC1)c1ccc(C(=O)NO)cc1` (centres unmarked) [Compound I-21, 4-{1-[(cyclobutylcarbonyl)amino]ethyl}-N-hydroxybenzamide], the pIC50 is 6.30 to 7.00.

`Cc1ccc(C2(C(=O)NC(C)c3ccc(C(=O)NO)cc3)CC2)cc1` (centres unmarked) [Compound I-264, N-hydroxy-4-[1-({[1-(4-methylphenyl)cyclopropyl]carbonyl}amino)ethyl]benzamide] showed a pIC50 above 7.00.

In turn, `COc1ccc(C(=O)N[C@@H](c2ccc(C(=O)NO)cc2)C(C)C)cc1` [Compound I-19, N-((1R)-1-{4-[(hydroxyamino)carbonyl]phenyl}-2-methylpropyl)-4-methoxybenzamide] gave a pIC50 above 7.00.

Take `CC(NC(=O)Nc1ccc(C(C)(C)C)cc1)c1ccc(C(=O)NO)cc1` (centres unmarked) [Compound I-140, 4-[1-({[(4-tert-butylphenyl)amino]carbonyl}amino)ethyl]-N-hydroxybenzamide]: the pIC50 was above 7.00.
